In patent US9624214B2, “Amino-substituted imidazo[1,2-a]pyridinecarboxamides and their use” (BAYER PHARMA AKTIENGESELLSCHAFT, priority 2012, dated 2017) one finds MEC data, which are given here for 20 compounds.

This assay has as its target T1, recombinant guanylate cyclase reporter cell line (Rattus norvegicus, UniProt P19686+P20595).
T1 construct: expressed in transfected cells
T1 sequence (P20595 1-619): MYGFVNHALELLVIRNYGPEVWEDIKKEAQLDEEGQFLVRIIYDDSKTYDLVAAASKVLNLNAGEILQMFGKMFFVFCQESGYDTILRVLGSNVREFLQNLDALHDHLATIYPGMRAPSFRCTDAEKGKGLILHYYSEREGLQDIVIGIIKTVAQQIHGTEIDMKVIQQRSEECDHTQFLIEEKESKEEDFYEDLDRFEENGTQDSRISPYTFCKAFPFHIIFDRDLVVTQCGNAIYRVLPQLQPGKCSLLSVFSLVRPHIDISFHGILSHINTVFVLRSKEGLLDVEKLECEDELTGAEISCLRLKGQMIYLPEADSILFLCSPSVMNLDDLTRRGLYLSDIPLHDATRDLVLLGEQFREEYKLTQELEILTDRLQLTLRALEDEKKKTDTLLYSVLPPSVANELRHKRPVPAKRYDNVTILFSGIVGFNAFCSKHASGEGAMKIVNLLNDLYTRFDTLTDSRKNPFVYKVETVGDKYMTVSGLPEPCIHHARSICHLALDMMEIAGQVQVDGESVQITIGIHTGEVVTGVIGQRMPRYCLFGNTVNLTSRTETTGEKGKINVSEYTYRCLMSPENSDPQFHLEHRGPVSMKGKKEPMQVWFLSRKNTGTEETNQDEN
T1 sequence (P19686 1-690): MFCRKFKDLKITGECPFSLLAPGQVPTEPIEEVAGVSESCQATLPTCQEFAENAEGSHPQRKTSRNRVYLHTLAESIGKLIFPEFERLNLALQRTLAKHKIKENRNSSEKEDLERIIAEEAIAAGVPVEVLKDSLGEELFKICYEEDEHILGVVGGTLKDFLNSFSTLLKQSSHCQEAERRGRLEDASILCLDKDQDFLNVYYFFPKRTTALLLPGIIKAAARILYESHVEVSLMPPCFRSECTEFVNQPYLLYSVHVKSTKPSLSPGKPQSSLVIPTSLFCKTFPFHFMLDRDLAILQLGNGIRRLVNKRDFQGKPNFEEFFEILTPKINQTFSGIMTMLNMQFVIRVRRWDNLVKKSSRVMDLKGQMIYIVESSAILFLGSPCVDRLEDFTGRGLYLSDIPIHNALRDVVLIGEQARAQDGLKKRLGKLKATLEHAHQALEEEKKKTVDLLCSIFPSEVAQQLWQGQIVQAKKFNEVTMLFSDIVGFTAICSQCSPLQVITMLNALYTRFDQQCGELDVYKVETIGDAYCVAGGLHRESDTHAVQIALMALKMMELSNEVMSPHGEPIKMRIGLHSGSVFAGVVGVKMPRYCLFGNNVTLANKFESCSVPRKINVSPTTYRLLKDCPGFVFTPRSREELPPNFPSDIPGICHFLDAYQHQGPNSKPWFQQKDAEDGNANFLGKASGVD
As to the kind of experiment: B-2. Action on recombinant guanylate cyclase reporter cell line. In kind it is cell-based. To be noted: MEC = minimal effective concentration; in some cases mean values from individual determinations. The essentials: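 MEC values, meaning the lowest concentration producing a detectable response, were taken from a recombinant cyclase reporter cell assay. Where repeated, individual determinations were averaged.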

SMILES strings stand for the structures. Counter-ions that a name gives are not always drawn.

Take `Cc1nc2c(OCc3c(F)cccc3F)cccn2c1C(=O)NCC(C)(N)CCO` (single isomer, unassigned; enantiomer a) [Example 272, ent-N-(2-Amino-4-hydroxy-2-methylbutyl)-8-[(2,6-difluorobenzyl)oxy]-2-methylimidazo[1,2-a]-pyridine-3-carboxamide (Enantiomer A)]: the MEC was found to be 5.5 µM.

As to `CCC(C)(N)CNC(=O)c1c(C)nc2c(OCc3c(F)ccc(F)c3F)cc(C)cn12` (single isomer, unassigned; enantiomer a) [Example 274, ent-N-(2-Amino-2-methylbutyl)-2,6-dimethyl-8-[(2,3,6-trifluorobenzyl)oxy]imidazo[1,2-a]-pyridine-3-carboxamide (Enantiomer A)], the MEC is 0.10 µM.

On to `CCC(C)(N)CNC(=O)c1c(C)nc2c(OCc3c(F)cccc3F)cc(OC)cn12` (single isomer, unassigned; enantiomer a) [Example 279, ent-N-(2-amino-2-methylbutyl)-8-[(2,6-difluorobenzyl)oxy]-6-methoxy-2-methylimidazo[1,2-a]pyridine-3-carboxamide (Enantiomer A)], for which the MEC turned out to be 0.3 µM.

With `Cc1cc(OCc2c(F)cccc2F)c2nc(C)c(C(=O)NCC(C)(N)CF)n2c1` (single isomer, unassigned; enantiomer a) [Example 283, ent-N-(2-amino-3-fluoro-2-methylpropyl)-8-[(2,6-difluorobenzyl)oxy]-2,6-dimethylimidazo[1,2-a]pyridine-3-carboxamide (Enantiomer A)], the MEC is 0.3 µM.

With `Cc1cc(OCc2c(F)ccc(F)c2F)c2nc(C)c(C(=O)NCC(C)(N)CF)n2c1` (single isomer, unassigned; enantiomer a) [Example 285, ent-N-(2-amino-3-fluoro-2-methylpropyl)-2,6-dimethyl-8-[(2,3,6-trifluorobenzyl)oxy]imidazo[1,2-a]pyridine-3-carboxamide (Enantiomer A)], the MEC was 0.3 µM.

Consider `CCC(C)(N)CNC(=O)c1c(C)nc2c(OCc3c(F)cccc3F)cc(C(F)F)cn12` (single isomer, unassigned; enantiomer a) [Example 287, ent-N-(2-amino-2-methylbutyl)-8-[(2,6-difluorobenzyl)oxy]-6-(difluoromethyl)-2-methylimidazo[1,2-a]pyridine-3-carboxamide Formate (Enantiomer A)], for which the MEC is 0.3 µM.

Regarding `CCC(C)(N)CNC(=O)c1c(C)nc2c(OCc3c(F)cccc3F)cc(C(F)F)cn12` (single isomer, unassigned; enantiomer a) [Example 288, ent-N-(2-amino-2-methylbutyl)-8-[(2,6-difluorobenzyl)oxy]-6-(difluoromethyl)-2-methylimidazo[1,2-a]pyridine-3-carboxamide (Enantiomer A)], the MEC turned out to be 0.3 µM.

As for `Cc1nc2c(OCc3c(F)cccc3F)cc(C(F)F)cn2c1C(=O)NCC(C)(N)CF` (single isomer, unassigned; enantiomer a) [Example 291, ent-N-(2-amino-3-fluoro-2-methylpropyl)-8-[(2,6-difluorobenzyl)oxy]-6-(difluoromethyl)-2-methylimidazo[1,2-a]pyridine-3-carboxamide (Enantiomer A)], the MEC amounted to 1.0 µM.

Turning to `Cc1cc(OCc2c(F)cccc2F)c2nc(C)c(C(=O)NCC(C)(N)Cc3ccccn3)n2c1` (single isomer, unassigned; enantiomer a) [Example 298, ent-N-[2-amino-2-methyl-3-(pyridin-2-yl)propyl]-8-[(2,6-difluorobenzyl)oxy]-2,6-dimethyl-imidazo[1,2-a]pyridine-3-carboxamide (Enantiomer A)], the MEC is 0.10 µM.

For the compound `CCC(C)(N)CNC(=O)c1c(C)nc2c(OCc3c(F)ccc(F)c3F)cc(C)cn12` (single isomer, unassigned; enantiomer a) [Example 300, ent-N-(2-amino-2-methylbutyl)-2,6-dimethyl-8-[(2,3,6-trifluorobenzyl)oxy]imidazo[1,2-a]pyridine-3-carboxamide (Enantiomer A) Hydrochloride], the MEC was found to be 0.10 µM.

Take `Cc1cc(OCc2c(F)cccc2F)c2nc(C)c(C(=O)NC3CCC3N)n2c1` (single isomer, unassigned; enantiomer a) [Example 328, ent-N-(2-aminocyclobutyl)-8-[(2,6-difluorobenzyl)oxy]-2,6-dimethylimidazo[1,2-a]pyridine-3-carboxamide (Enantiomer A)]: the MEC stood at 3.00 µM.

With `Cc1cc(OCc2c(F)cccc2F)c2nc(C)c(C(=O)NC3CCC3(C)N)n2c1` (single isomer, unassigned; enantiomer a) [Example 332, ent-N-[2-amino-2-methylcyclobutyl]-8-[(2,6-difluorobenzyl)oxy]-2,6-dimethylimidazo[1,2-a]pyridine-3-carboxamide (Enantiomer A)], the MEC came out at 1.00 µM.

For `Cc1cc(OCc2c(F)cccc2F)c2nc(C)c(C(=O)NC3(C)CCC3(C)N)n2c1` (single isomer, unassigned; enantiomer a) [Example 336, ent-N-[(2-amino-1,2-dimethylcyclobutyl]-8-[(2,6-difluorobenzyl)oxy]-2,6-dimethylimidazo[1,2-a]pyridine-3-carboxamide (Enantiomer A)], the MEC amounted to 0.30 µM.

For the compound `CCC(C)(N)CNC(=O)c1c(C)nc2c(OCc3c(F)cccc3F)cc(C)cn12.Cl` (single isomer, unassigned; enantiomer a) [Example 357, ent-N-(2-amino-2-methylbutyl)-8-[(2,6-difluorobenzyl)oxy]-2,6-dimethylimidazo[1,2-a]pyridine-3-carboxamide Hydrochloride (Enantiomer A)], the MEC stood at 0.03 µM.

As to `Cc1cc(OCc2c(F)cccc2F)c2nc(C)c(C(=O)NCC(N)C#N)n2c1` (single isomer, unassigned; enantiomer a) [Example 401, ent-N-(2-amino-2-cyanoethyl)-8-[(2,6-difluorobenzyl)oxy]-2,6-dimethylimidazo[1,2-a]pyridine-3-carboxamide (Enantiomer A)], the MEC is 1.00 µM.

Take `Cc1cc(OCc2c(F)cccc2F)c2nc(C)c(C(=O)NCC(C)(N)CCC(F)(F)F)n2c1` (single isomer, unassigned; enantiomer a) [Example 408, ent-N-(2-amino-5,5,5-trifluoro-2-methylpentyl)-8-[(2,6-difluorobenzyl)oxy]-2,6-dimethylimidazo[1,2-a]pyridine-3-carboxamide (Enantiomer A)]: the MEC worked out at 0.10 µM.

Take `Cc1cc(OCc2c(F)ccc(F)c2F)c2nc(C)c(C(=O)NCC(C)(N)CCC(F)(F)F)n2c1` (single isomer, unassigned; enantiomer a) [Example 410, ent-N-(2-amino-5,5,5-trifluoro-2-methylpentyl)-2,6-dimethyl-8-[(2,3,6-trifluorobenzyl)oxy]imidazo[1,2-a]pyridine-3-carboxamide (Enantiomer A)]: the MEC is 0.10 µM.

On to `Cc1nc2c(OCc3c(F)cccc3F)cccn2c1C(=O)NC(CN)CC(F)(F)F` (single isomer, unassigned; enantiomer b) [Example 3, ent-N-(1-Amino-4,4,4-trifluorobutan-2-yl)-8-[(2,6-difluorobenzyl)oxy]-2-methylimidazo[1,2-a]-pyridine-3-carboxamide (Enantiomer B)], for which the MEC turned out to be 0.30 µM.

As to `Cc1nc2c(OCc3c(F)cccc3F)cccn2c1C(=O)NC(CN)CCCC(F)(F)F` (single isomer, unassigned; enantiomer b) [Example 6, ent-N-(1-Amino-6,6,6-trifluorohexan-2-yl)-8-[(2,6-difluorobenzyl)oxy]-2-methylimidazo[1,2-a]-pyridine-3-carboxamide (Enantiomer B)], the MEC was determined as 0.23 µM.

As to `Cc1nc2c(OCc3c(F)cccc3F)cccn2c1C(=O)NC(CN)c1ccc(F)cc1` (single isomer, unassigned; enantiomer b) [Example 10, ent-N-[2-Amino-1-(4-fluorophenyl)ethyl]-8-[(2,6-difluorobenzyl)oxy]-2-methylimidazo[1,2-a]-pyridine-3-carboxamide (Enantiomer B)], the MEC worked out at 0.30 µM.
